Assay [1] has as its target T1, Sodium channel protein type 2 subunit alpha (Homo sapiens, UniProt Q99250). Description: Inhibition of human Nav1.2 expressed in HEK293 cells assessed as test to control ratio at 1 uM measured after 5 mins by whole cell voltage clamp electrophysiological analysis. Type of assay: cell-based.
Target sequence in this assay (Q99250 whole entry, looked up): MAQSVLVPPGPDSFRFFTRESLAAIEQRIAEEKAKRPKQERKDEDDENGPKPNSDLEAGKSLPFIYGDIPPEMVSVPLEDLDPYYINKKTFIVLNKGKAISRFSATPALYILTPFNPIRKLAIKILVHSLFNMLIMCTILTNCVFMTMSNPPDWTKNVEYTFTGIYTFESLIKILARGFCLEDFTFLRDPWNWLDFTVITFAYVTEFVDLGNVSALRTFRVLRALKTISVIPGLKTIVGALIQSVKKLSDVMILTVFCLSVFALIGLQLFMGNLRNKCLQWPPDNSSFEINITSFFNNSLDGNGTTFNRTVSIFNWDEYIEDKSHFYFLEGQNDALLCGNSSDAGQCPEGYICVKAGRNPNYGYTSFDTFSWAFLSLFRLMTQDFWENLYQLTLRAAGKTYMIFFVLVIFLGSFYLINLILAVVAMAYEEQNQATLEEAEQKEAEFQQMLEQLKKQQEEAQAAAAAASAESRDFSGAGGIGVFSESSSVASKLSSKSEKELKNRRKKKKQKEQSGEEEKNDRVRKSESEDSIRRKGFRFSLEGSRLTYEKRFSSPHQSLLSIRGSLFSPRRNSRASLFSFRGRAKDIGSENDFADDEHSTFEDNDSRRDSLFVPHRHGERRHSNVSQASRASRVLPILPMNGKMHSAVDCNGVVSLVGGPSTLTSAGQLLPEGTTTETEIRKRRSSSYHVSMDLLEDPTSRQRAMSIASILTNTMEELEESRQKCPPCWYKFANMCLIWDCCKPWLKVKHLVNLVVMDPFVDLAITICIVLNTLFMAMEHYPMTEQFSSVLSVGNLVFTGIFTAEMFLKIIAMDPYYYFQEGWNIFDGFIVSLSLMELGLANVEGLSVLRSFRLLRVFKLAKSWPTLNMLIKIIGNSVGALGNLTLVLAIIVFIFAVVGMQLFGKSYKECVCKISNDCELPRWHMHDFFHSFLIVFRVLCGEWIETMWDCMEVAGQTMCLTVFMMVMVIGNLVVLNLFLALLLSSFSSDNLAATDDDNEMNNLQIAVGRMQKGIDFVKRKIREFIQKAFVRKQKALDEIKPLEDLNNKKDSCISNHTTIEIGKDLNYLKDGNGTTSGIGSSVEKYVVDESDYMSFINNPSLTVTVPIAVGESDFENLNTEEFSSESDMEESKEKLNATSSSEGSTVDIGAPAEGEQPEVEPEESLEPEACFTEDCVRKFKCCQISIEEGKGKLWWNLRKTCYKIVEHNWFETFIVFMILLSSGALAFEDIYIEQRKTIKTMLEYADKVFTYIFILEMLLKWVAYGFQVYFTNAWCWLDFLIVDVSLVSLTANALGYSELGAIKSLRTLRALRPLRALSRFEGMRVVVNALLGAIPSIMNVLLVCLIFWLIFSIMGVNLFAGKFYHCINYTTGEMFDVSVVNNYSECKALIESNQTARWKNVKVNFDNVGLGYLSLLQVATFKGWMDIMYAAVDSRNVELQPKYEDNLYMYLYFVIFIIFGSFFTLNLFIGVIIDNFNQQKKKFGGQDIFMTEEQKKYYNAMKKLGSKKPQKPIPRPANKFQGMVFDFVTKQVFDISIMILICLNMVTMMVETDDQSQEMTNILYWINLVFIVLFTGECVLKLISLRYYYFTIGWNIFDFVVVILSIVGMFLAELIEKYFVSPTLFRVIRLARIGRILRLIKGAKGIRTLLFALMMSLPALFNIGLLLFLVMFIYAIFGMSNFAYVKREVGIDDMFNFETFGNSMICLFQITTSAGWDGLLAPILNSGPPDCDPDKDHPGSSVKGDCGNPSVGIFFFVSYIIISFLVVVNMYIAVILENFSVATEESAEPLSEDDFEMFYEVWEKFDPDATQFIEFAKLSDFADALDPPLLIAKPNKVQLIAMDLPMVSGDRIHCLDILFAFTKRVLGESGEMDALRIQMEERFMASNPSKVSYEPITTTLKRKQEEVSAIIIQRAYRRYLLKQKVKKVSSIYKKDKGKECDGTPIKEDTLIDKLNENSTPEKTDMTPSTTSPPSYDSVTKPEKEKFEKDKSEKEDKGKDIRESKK
The target of assay [2] is T1, Sodium channel protein type 2 subunit alpha. Description: Inhibition of human Nav1.2 expressed in HEK293 cells assessed as test to control ratio at 10 uM measured after 5 mins by whole cell voltage clamp electrophysiological analysis. Type of assay: cell-based.
Target sequence in this assay (Q99250 whole entry, looked up): as above
The target is the same in assay [3]. Description: Inhibition of human Nav1.2 expressed in HEK293 cells assessed as test to control ratio at 0.1 uM measured after 5 mins by whole cell voltage clamp electrophysiological analysis. The class given is cell-based.
Target sequence in this assay (Q99250 whole entry, looked up): as above
Assay [4] has the same target. Description: Inhibition of Nav1.2 (unknown origin).
Target sequence in this assay (Q99250 whole entry): as the sequence (Q99250 whole entry, looked up) above
For assay [5] the target is unchanged. Description: Inhibition of human Nav1.2 expressed in HEK293 cells at 10 uM measured after 5 mins by whole cell voltage clamp electrophysiological analysis relative to control. Type of assay: cell-based.
Target sequence in this assay (Q99250 whole entry, looked up): as above
Assay [6] concerns Mus musculus. Kind of assay: Antiepileptic activity in MES-induced seizure male ICR mouse model assessed as protection against tonic hind limb extension at 300 mg/kg, ip measured after 30 mins relative to control. The class given is functional. The following applies: 0.5 h.
Assay [7] concerns Mus musculus. Description: Antiepileptic activity in 6 Hz(32 mA)-induced seizure male C57BL mouse model assessed as protection against seizure at 200 mg/kg, ip administered for 30 mins by epilepsy test. Type of assay: functional. The following applies: 0.5 h.
Assay [8] has as its target T1, Sodium channel protein type 2 subunit alpha. Description: Inhibition of Nav1.2 (unknown origin) at 100 uM relative to control.
Target sequence in this assay (Q99250 whole entry, looked up): as above

Results on 44 molecules are retold here after ChEMBL document CHEMBL5584296, “Discovery of Novel Pyrimidine-Based Derivatives as Nav1.2 Inhibitors with Efficacy in Mouse Models of Epilepsy” (J Med Chem, 2024).

For `Nc1nc(-c2cccn2C2CCCCO2)cc(N2CCCc3ccccc3C2)n1` (stereo not drawn), the T/C in assay [1] came to 0.77; in assay [2], 0.19.
For the molecule `Nc1nc(-c2cccc3ccccc23)cc(N2CCCc3ccccc3C2)n1`, the T/C is 0.85 in assay [1] and 0.08 in assay [2].
Turning to `COc1cccc(-c2cc(N3CCCc4ccccc4C3)nc(NS(=O)(=O)c3ccc(F)cc3)n2)c1`, the figures for the T/C in assay [1], in assay [2] and in assay [3] were 0.95, 0.36 and 0.95, respectively.
`Nc1nc(-c2ccc3c(c2)CCO3)cc(N2CCCc3ccccc3C2)n1`: the T/C in assay [1] was 0.82; in assay [2] it was 0.07.
Consider `COc1cccc(-c2cc(N3CCc4ccccc4C3)nc(N)n2)c1`, for which the T/C in assay [1] turned out to be 0.35; in assay [2], 0.13; in assay [3] it was 0.68.
On the same counts, the results for `COc1cccc(-c2nc(N)nc(N3CCCc4ccc(C)cc4C3)c2F)c1` are 0.19, 0.01 and 0.88.
With `COc1cccc(-c2cc(N3CCC4(CCOCC4)C3)nc(N)n2)c1`, the T/C is 0.94 in assay [1], 0.57 in assay [2] and 0.97 in assay [3].
A word on the IC50: it is the concentration needed to halve the response being measured. Lower therefore signals greater potency in that assay. For the molecule `Nc1cnc(-c2cc(Cl)cc(Cl)c2Cl)c(N)n1` [ELPETRIGINE], the IC50 in assay [4] amounted to 6 µM.
In the case of `COc1cccc(-c2cc(N3CCC(C)c4ccccc4C3)nc(N)n2)c1` (stereo not drawn), the results for the T/C in assay [1], in assay [2] and in assay [3] were 0.12, 0.11 and 0.95, respectively.
In the case of `COc1cccc(-c2cc(N3CCCc4ccc(C)cc4C3)nc(SC)n2)c1`, the T/C in assay [2] was found to be 0.66.
Turning to `Nc1nc(-c2ccc(F)cc2)cc(N2CCCc3ccccc3C2)n1`, the values for the T/C in assay [1], in assay [2] and in assay [3] were 0.46, 0.18 and 0.9, respectively.
The term inhibition denotes how much of the control response was suppressed. High values mean a response far below the control, low ones a response near the control. On to `COc1cccc(-c2cc(NCc3ccc(OC)c(OC)c3)nc(N)n2)c1`, for which the T/C in assay [1] was found to be 0.4; in assay [2] it was 0.24; in assay [3] it was 0.7. Also, in assay [5], the inhibition was found to be 76%.
With `Nc1nc(-c2ccc3c(c2)OCCC3)cc(N2CCCc3ccccc3C2)n1`, the figures for the T/C in assay [1] and in assay [2] were 0.72 and 0.07, respectively.
On to `COc1cccc(-c2cc(N3CCCc4ccc(C)cc4C3)ncn2)c1`, for which the T/C amounted to 0.43 in assay [1], 0.13 in assay [2] and 0.8 in assay [3].
As for `COc1cccc(-c2cc(N3CCc4cc(OC)c(OC)cc4C3)nc(N)n2)c1`, the results for the T/C in assay [1], in assay [2] and in assay [3] were 0.35, 0.01 and 0.67, respectively. For the same molecule, in assay [5], the inhibition was 99%.
As to `COc1cccc(-c2cc(N3Cc4ccccc4C3)nc(N)n2)c1`, the T/C in assay [2] is 0.75.
For the molecule `Nc1nc(-c2cccc(OC(F)(F)F)c2)cc(N2CCCc3ccccc3C2)n1`, the results for the T/C in assay [1] and in assay [2] were 0.81 and 0.07, respectively.
Take `COc1cccc(-c2cc(N3CCCc4ccc(C)cc4C3)nc(OC)n2)c1`: the T/C in assay [1] stood at 0.43; in assay [2], 0.11; in assay [3], 0.88.
Take `COc1cccc(-c2cc(NCCc3ccc(OC)c(OC)c3)nc(N)n2)c1`: the T/C in assay [1] was determined as 0.35; in assay [2], 0.15; in assay [3], 0.61.
As for `COc1cccc(-c2cc(N3CCCc4cc(F)ccc4C3)nc(N)n2)c1`, the results for the T/C in assay [1], in assay [2] and in assay [3] were 0.03, 0.04 and 0.39, respectively.
Take `Nc1nc(-c2ccc(OC3CCCCO3)cc2)cc(N2CCCc3ccccc3C2)n1` (stereo not drawn): the T/C in assay [1] stood at 0.76; in assay [2] it was 0.14.
In the case of `COc1cccc(-c2cc(N3CC4CC(C3)c3ccccc34)nc(NS(=O)(=O)c3cccc(C)c3)n2)c1`, the T/C is 0.68 in assay [1] and 0.33 in assay [2].
As to `COc1cccc(-c2cc(N3CCCc4c(cc(OC)cc4OC)C3)nc(N)n2)c1`, the figures for the T/C in assay [1] and in assay [2] were 0.53 and 0.14, respectively.
In the case of `COc1cccc(-c2cc(N3CC4CC(C3)c3ccccc34)nc(NS(=O)(=O)c3ccc(C)cc3)n2)c1`, the T/C in assay [1] came to 0.71; in assay [2] it was 0.31.
Regarding `CCCC(CCC)C(=O)O` [VALPROIC ACID], the Activity with Mus musculus [6] and in the assay on Mus musculus [7] was 100% throughout.
With `CCCc1ccc(S(=O)(=O)Nc2nc(-c3cccc(OC)c3)cc(N3CCCc4ccccc4C3)n2)cc1`, the T/C in assay [1] came out at 0.12; in assay [2], 0.08; in assay [3] it was 0.86. The molecule also displayed an inhibition in assay [5] of 92%.
Take `COc1cccc(-c2cc(N3CCCc4ccc(C)cc4C3)nc(-c3ccccc3)n2)c1`: the T/C in assay [2] was found to be 0.91.
`Cc1cccc(C)c1OCCCNCc1cc(C(C)(C)C)c(O)c(C(C)(C)C)c1` displayed an IC50 in assay [4] of 0.18 µM.
Take `COc1cccc(-c2cc(N3CC4CC(C3)c3ccccc34)nc(NS(=O)(=O)c3ccc(C)cc3C)n2)c1`: the T/C in assay [1] came out at 0.84; in assay [2] it was 0.45.
As to `COc1cccc(-c2cc(N3CCCc4ccc(F)cc4C3)nc(N)n2)c1`, the T/C worked out at 0.03 in assay [1], 0 in assay [2] and 0.84 in assay [3].
In the case of `COc1cccc(-c2cc(N3CCCc4cc(F)c(F)cc4C3)nc(N)n2)c1`, the T/C in assay [1] was found to be 0.65; in assay [2], 0.43.
As for `COc1cccc(-c2cc(NCCc3ccc4c(c3)OCO4)nc(N)n2)c1`, the T/C worked out at 0.34 in assay [1], 0.05 in assay [2] and 0.86 in assay [3].
For the molecule `COc1cccc(-c2cc(N3CCc4nc(Cl)ccc4C3)nc(N)n2)c1`, the T/C in assay [1] came to 0.71; in assay [2], 0.18; in assay [3], 0.89.
Take `COc1cccc(-c2cc(N3CCCc4ccc(C)cc4C3)nc(S(C)(=O)=O)n2)c1`: the T/C in assay [2] stood at 0.81.
Consider `COc1cccc(-c2cc(N3CC4CC(C3)c3ccccc34)nc(NS(=O)(=O)c3ccc(F)cc3)n2)c1`, for which the T/C in assay [1] stood at 0.56; in assay [2], 0.28.
`COc1cccc(-c2cc(N3CCCc4ccc(C)cc4C3)nc(C#N)n2)c1`: the T/C in assay [2] is 0.86.
As to `CC(C)Oc1ccc(-c2cc(N3CCCc4ccccc4C3)nc(N)n2)cc1`, the figures for the T/C in assay [1] and in assay [2] were 0.87 and 0.37, respectively.
Consider `COc1cccc(-c2cc(N3CCc4nc(C)sc4C3)nc(N)n2)c1`, for which the T/C in assay [2] worked out at 0.79.
Take `Nc1nc(-c2ccc(Oc3ccccc3)cc2)cc(N2CCCc3ccccc3C2)n1`: the figures for the T/C in assay [1] and in assay [2] were 0.79 and 0.46, respectively.
Turning to `Cc1cccc(-c2cc(N3CCCc4ccccc4C3)nc(N)n2)c1`, the T/C in assay [1] turned out to be 0.24; in assay [2] it was 0.03; in assay [3], 0.85.
`COc1cccc(-c2cc(N3CCCc4ccc(OCc5ccccc5)cc4C3)nc(N)n2)c1`: the T/C in assay [1] turned out to be 0.11; in assay [2], 0.02; in assay [3], 0.77.
Consider `CN1C[C@H](CNC(=O)OCc2ccccc2)C[C@@H]2c3cccc4c3c(cn4C)C[C@H]21`, for which the T/C in assay [2] is 0.01.
Consider `COc1cccc(-c2cc(N3CCCc4ccccc4C3)nc(NS(=O)(=O)c3ccc(Cl)cc3)n2)c1`, for which the T/C in assay [2] worked out at 0.65.
The molecule `O=C(CC(c1ccccc1)c1ccccc1)N1CCN(CCO)CC1` yielded an inhibition in assay [8] of 59.1%.
